{"source": "patent EP0018104A2", "about": "“Tetrahydroisoquinolines, their production and the compounds and pharmaceutical compositions containing them for use in the prevention or treatment of hypertension” (Takeda Chemical Industries, Ltd., priority 1979, dated 1980)", "molecular_target": "T1, angiotensin I converting enzyme (ACE) (Oryctolagus cuniculus, UniProt P12822)", "T1 construct": "prepared from the lungs of albino rabbit according to the method described by Wallace et al; from tissue; host or cells: lungs of albino rabbit", "T1 sequence (P12822 34-1310)": "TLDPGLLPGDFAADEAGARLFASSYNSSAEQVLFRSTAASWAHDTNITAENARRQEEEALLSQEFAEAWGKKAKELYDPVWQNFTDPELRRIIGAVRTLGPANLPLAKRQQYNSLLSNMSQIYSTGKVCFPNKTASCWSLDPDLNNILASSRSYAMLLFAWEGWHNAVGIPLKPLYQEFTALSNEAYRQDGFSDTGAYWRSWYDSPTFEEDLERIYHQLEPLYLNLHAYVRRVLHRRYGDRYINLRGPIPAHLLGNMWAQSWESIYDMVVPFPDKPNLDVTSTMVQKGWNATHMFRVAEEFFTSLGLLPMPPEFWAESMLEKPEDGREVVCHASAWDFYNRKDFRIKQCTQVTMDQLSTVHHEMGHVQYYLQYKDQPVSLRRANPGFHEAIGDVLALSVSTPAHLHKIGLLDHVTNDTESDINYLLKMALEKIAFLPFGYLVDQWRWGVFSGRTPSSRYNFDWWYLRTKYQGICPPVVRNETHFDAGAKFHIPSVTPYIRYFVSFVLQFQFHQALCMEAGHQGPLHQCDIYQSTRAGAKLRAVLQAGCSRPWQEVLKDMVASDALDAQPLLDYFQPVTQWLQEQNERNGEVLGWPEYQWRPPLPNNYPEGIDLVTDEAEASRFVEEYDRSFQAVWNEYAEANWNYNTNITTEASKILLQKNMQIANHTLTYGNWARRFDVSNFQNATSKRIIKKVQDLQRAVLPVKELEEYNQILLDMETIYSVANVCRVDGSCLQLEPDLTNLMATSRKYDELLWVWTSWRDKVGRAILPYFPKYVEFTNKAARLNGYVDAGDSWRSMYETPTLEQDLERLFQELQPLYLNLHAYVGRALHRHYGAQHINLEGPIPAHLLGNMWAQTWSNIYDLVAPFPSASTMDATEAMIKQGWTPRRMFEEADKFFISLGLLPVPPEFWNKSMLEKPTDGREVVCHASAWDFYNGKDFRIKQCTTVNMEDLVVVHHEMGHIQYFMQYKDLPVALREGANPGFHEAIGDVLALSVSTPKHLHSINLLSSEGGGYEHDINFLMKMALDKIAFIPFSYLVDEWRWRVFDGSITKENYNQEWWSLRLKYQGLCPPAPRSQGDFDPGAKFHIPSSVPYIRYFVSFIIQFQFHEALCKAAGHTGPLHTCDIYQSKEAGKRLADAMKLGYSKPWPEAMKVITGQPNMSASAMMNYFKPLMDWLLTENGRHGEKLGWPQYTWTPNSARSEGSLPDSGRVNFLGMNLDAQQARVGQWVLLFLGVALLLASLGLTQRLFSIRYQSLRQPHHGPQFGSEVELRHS", "assay": "Inhibition of angiotensin I converting enzyme (HHL substrate, hippuric acid colorimetry, modified Cushman method)", "format": "biochemical, albino rabbit", "conditions": "ACE from rabbit lung, 37°C, one hour, read-out: Inhibitory Activity on ACE (%); for inhibition at 1 µM: Concentration 1 µM; for inhibition at 10 µM: Concentration 10 µM", "protocol": "Inhibitions of Angiotensin I Converting Enzyme by the Compounds of this Invention.\nThe experiment was conducted in accordance with a modification of the method described by Cushman et al. [Biochemical Pharmacology, Vol. 20, p1637(1971)] using an angiotensin I converting enzyme (ACE) prepared from the lungs of albino rabbit according to the method described by Wallace et al. [American Journal of Physiology, Vol 234, page R141(1978)]. That is, using hippuryl-L-histidyl-L-leucin (HHL) as the substrate, the ACE inhibitory activity was determined in terms of percentage inhibitation on the amount of hippurie acid produced by ACE when the present compound was added. A solution of the compound of the present invention dissolved in an 0.02 to 2% dimethyl sulfoxide-500 mMpotassium phosphate buffer solution (pH 8.3, containing 300 mM sodium chloride) was added to 100 µℓ of ACE (protein concentration, 20 mg/mℓ) and 100 µℓ of 1.25 mM HHL. In this experiment a potassium phosphate buffer solution containing dimethyl sulfoxide at a concentration equal to that of the test solution was used as a control. After incubating the solution at 37°C for one hour, 150 µℓ of 1N hydrochloric acid were added to the solution to terminate the reaction. After 1 mℓ of ethyl acetate was added, the solution was centrifuged at 3000 r.p.m. for 10 minutes. An 0.5 mℓ aliquot was separated from the ethyl acetate layer and dried at a temperature below 50°C under a nitrogen. gas stream. The residue was mixed with mℓ of 1M aqueous sodium chloride and the mixture was subjected to colorimetry at a wavelength of 228 nm."}
{"smiles": "CC(=O)SCC(C)C(=O)N1Cc2ccc(O)cc2CC1C(=O)O", "note": "(centres unmarked) [Example 19, 2-(3-acetylthio-2-methylpropionyl)-6-hydroxy-1,2,3,4-tetrahydroisoquinoline-3-carboxylic acid]", "values": [{"measurement": "inhibition at 1 µM", "result": 61, "unit": "%"}, {"measurement": "inhibition at 10 µM", "result": 98, "unit": "%"}]}
{"smiles": "CC(C)(C)c1ccc2c(c1)CN(C(=O)C(CS)CS)C(C(=O)O)C2", "note": "(centres unmarked) [Example 71, 7-tert-butyl-2-(3-mercapto-2-mereaptomethylprionyl)-1,2,3,4-tetrahydroisoquinoline-3-carboxylic acid]", "values": [{"measurement": "inhibition at 1 µM", "result": 71, "unit": "%"}, {"measurement": "inhibition at 10 µM", "result": 77, "unit": "%"}]}
{"smiles": "CC(=O)SCC(C)C(=O)N1Cc2cc3c(cc2C[C@H]1C(=O)O)OCO3", "note": "(stereo partly drawn) [Example 38, (3S)-2-(3-acetylthio-2-methylpropionyl)-6,7-methylenedioxy-1,2,3,4-tetrahydroisoquinoline-3-carboxylic acid]", "values": [{"measurement": "inhibition at 1 µM", "result": 83, "unit": "%"}, {"measurement": "inhibition at 10 µM", "result": 100, "unit": "%"}]}
{"smiles": "CC(CS)C(=O)N1Cc2cc3c(cc2C[C@H]1C(=O)O)OCO3", "note": "(stereo partly drawn) [Example 52, (3S)-2-(3-mercapto-2-methylpropionul)-1,7-mezhylene-dioxy-1,2,3,4-tetrahydroisoquinoline-3-earboxylie acid]", "values": [{"measurement": "inhibition at 1 µM", "result": 60, "unit": "%"}, {"measurement": "inhibition at 10 µM", "result": 82, "unit": "%"}]}
